Data published in patent publication US12484574B2, “Agent for promoting undifferentiation and cryoprotective agent using aprotic zwitterion” (JAPAN SCIENCE AND TECHNOLOGY AGENCY, priority 2019, dated 2025).
Entries after “also recorded” stand apart in the source; their conditions may differ.

Key:
Human skin fibroblasts [1] = test: Cell freezing, slow freezing method, viable cell count after thawing (Examples 2, 3); assay type: cell-based; conditions: 5% by weight in H2O; frozen to −80° C. at −1° C./min; FIG. 3, FIG. 6
Procedure: (§1) CultureSure® cryopreservation solution (manufactured by FUJIFILM Wako Pure Chemical Corp.) (hereinafter, referred to as “FM”) • H2O • 5% by weight of DMSO/H2O • 5% by weight of OE2imC3C/H2O
(§2) The cells to be frozen (two types) were centrifugally recovered by trypsin treatment and diluted with Dulbecco's modified Eagle medium (DMEM), and each cell concentration was measured. The types and cell concentrations of the cells are as follows. • Human skin fibroblasts 5.0×10^5 cells/100 μl • Mouse fibroblasts C57BL/6-GFP 5.0×10^5 cells/100 μl
(§3) Subsequently, the cells of each type were dispensed at 1 ml/tube to 1.5 ml tubes, centrifuged, suspended in 100 μl each of the cryopreservation solutions described above, and frozen at a cooling temperature of −80° C. at a cooling rate of −1° C./min using a cell freezing container Mr. Frosty®.
1 ml of a medium was added to the cryopreservation vial for thawing, and a supernatant was removed by centrifugation. Subsequently, the cells obtained by centrifugation were resuspended in a medium, followed by the measurement of a viable cell count. Then, culture was started in a 6-well plate. […]
The cells to be frozen were centrifugally recovered by trypsin treatment and diluted with Dulbecco's modified Eagle medium (DMEM), and the cell concentration was measured. […]

[2] = Glass transition temperature and heat quantity by differential scanning calorimetry (DSC); assay type: physicochemical; conditions: 10 wt % in purified water, cooling −1° C./min, heating 5° C./min
Procedure: The glass transition temperature and the heat quantity were determined by differential scanning calorimetry (DSC). The measurement was performed with a cooling rate set to −1° C./min an d a heating rate set to 5° C./min.

[3] = tested on: Mouse fibroblasts C57BL/6-GFP; test: Cell freezing, slow freezing method, viable cell count after thawing (Example 2); assay type: cell-based; conditions: 5% by weight in H2O; frozen to −80° C. at −1° C./min; FIG. 4
Procedure: as §1, §2, §3
(§4) 1 ml of a medium was added to the cryopreservation vial for thawing, and a supernatant was removed by centrifugation. Subsequently, the cells obtained by centrifugation were resuspended in a medium, followed by the measurement of a viable cell count. Then, culture was started in a 6-well plate.

[4] = tested on: Human skin fibroblasts / Mouse fibroblasts C57BL/6-GFP; test: Cell state 24 hours after start of culture, slow freezing method (microscope); assay type: cell-based; conditions: 5% by weight in H2O, thawed, cultured 24 hours, cell type of FIG. 5 not stated
Procedure: as §2, §3, §4
24 hours after the start of culture, the sample was fixed in 4% paraformaldehyde (PFA) and observed under a microscope.

Human skin fibroblasts [5] = test: Cell freezing, rapid freezing method, viable cell count (Example 4); assay type: cell-based
Procedure: (§5) Human ES cell and human iPS cell cryopreservation solution DAP213 (manufactured by ReproCELL Inc.) • 75% by weight of OE2imC3C/H2O • 50% by weight of OE2imC3C/H2O • 25% by weight of OE2imC3C/H2O
as §2, with “fibroblasts 8.2×10^5” for “fibroblasts 5.0×10^5”, “μl (N=3)” for “μl”, “C57BL/6-GFP 1.2×10^6” for “C57BL/6-GFP 5.0×10^5”
(§6) Subsequently, the cells of each type were dispensed at 1 ml/tube to 1.5 ml tubes, centrifuged, suspended in 100 μl each of the cryopreservation solutions described above, and immediately thereafter rapidly frozen in liquid nitrogen within 10 to 15 seconds. Then, the cells were preserved for 3 days in a liquid nitrogen tank.
(§7) The cryopreservation vial was rapidly thawed with 1 ml of a medium, and a supernatant was removed by centrifugation. Subsequently, the cells obtained by centrifugation were resuspended in a medium, followed by the measurement of a viable cell count. Then, culture was started in a 6-well plate.
(§8) 24 hours after the start of culture, the viable cell count was measured.

[6] = tested on: Mouse fibroblasts C57BL/6-GFP; test: as above; assay type: cell-based
Procedure: as §5
as §2, with “fibroblasts 8.2×10^5” for “fibroblasts 5.0×10^5”, “μl (N=3)” for “μl”, “C57BL/6-GFP 1.2×10^6” for “C57BL/6-GFP 5.0×10^5”
as §6, §7, §8

Wild-type zebrafish AB* = test: Influence on development of zebrafish; assay type: in vivo; conditions: fertilized eggs cultured 1.5 to 24 hours
Procedure: All experiments were conducted based on a protocol approved by the animal experiment committee of Kanazawa University. Wild-type zebrafish AB* was raised at 28.5° C. with 14-hour light/10-hour dark cycles in a circulating water system. The medium used was E3 medium (5 mM NaCl, 0.17 mM KCl, 0.33 mM CaCl2, 0.33 mM MgSO4). The medium was supplemented with 1%, 2%, 5% or 10% DMSO or HLS (OE2imC3C). For each test group, eggs were fertilized and then cultured for 1.5 to 24 hours. The embryos thus cultured were washed with E3 medium twice and treated with 1-phenyl-2-thiourea (FUJIFILM Wako Pure Chemical Corp.) in order to prevent pigmentation. The embryos were stained with 0.6 mg/mL o-dianisidine (Tokyo Chemical Industry Co., Ltd.) for 15 minutes and fixed in 4% paraformaldehyde (FUJIFILM Wako Pure Chemical Corp.). The embryos were washed with phosphate-buffered saline containing 0.1% Tween (Sigma-Aldrich Co. LLC) twice. The survival rate was similar between DMSO and HLS (OE2imC3C) up to the 2% addition groups, whereas the survival rate differed largely therebetween in the 5% addition groups.

Q: Which “viable cell count after thawing” value (Human skin fibroblasts [1]) does the source give for `COCCOCCn1cc[n+](CCCC(=O)[O-])c1` [OE2imC3C] here?
A: The value was “larger viable cell count than that in the case of using conventional DMSO; also recorded: superior to the commercially available cryopreservation solution (FM)”.

Q: What about the Heat quantity [2] of the same compound?
A: Its Heat quantity is -198.7 J/g.

Q: And the Tg [2]?
A: The Tg was −85.69 °C.

Q: And the “viable cell count after thawing” value [3]?
A: Its value is “larger viable cell count than that in the case of using conventional DMSO”.

Q: What about the “cell state 24 hours after the start of culture” value [4] of the same compound?
A: The value was “confirmed to adhere to the dish bottom”.

Q: What about the “viable cell count after thawing” value (Human skin fibroblasts [5]; 75, 50, 25% by weight in H2O, rapidly frozen in liquid nitrogen, preserved 3 days, FIG. 7) of the same compound?
A: Its value is “comparable to that of the commercially available cryopreservation solution DAP213; also recorded: a lower concentration (25% by weight) offered a higher survival rate of the cells”.

Q: What about the “viable cell count 24 hours after the start of culture” value (Human skin fibroblasts [5]; rapid freezing method, FIG. 9) of the same compound?
A: The value was “reached a high value, albeit being inferior to the commercially available cryopreservation solution DAP213”.

Q: What about the “viable cell count after thawing” value ([6]; 75, 50, 25% by weight in H2O, rapidly frozen in liquid nitrogen, preserved 3 days, FIG. 8) of the same compound?
A: Its value is “comparable to that of the commercially available cryopreservation solution DAP213; also recorded: a lower concentration (25% by weight) offered a higher survival rate of the cells”.

Q: What about the “viable cell count 24 hours after the start of culture” value ([6]; rapid freezing method, FIG. 10) of the same compound?
A: The value was “reached a high value, albeit being inferior to the commercially available cryopreservation solution DAP213”.

Q: What about the Survival rate (Wild-type zebrafish AB*; Concentration 1 % (v/v for DMSO, w/v for HLS) in E3 medium) of the same compound?
A: The Survival rate was 27/27.

Q: What about the Survival rate (Wild-type zebrafish AB*; Concentration 2 % (v/v for DMSO, w/v for HLS) in E3 medium) of the same compound?
A: The Survival rate was 27/27.

Q: And the Survival rate (Wild-type zebrafish AB*; Concentration 5 % (v/v for DMSO, w/v for HLS) in E3 medium)?
A: The Survival rate was 27/27.

Q: And the Survival rate (Wild-type zebrafish AB*; Concentration 10 % (v/v for DMSO, w/v for HLS) in E3 medium)?
A: The Survival rate was 0/27.
